Results: article PMC2825141 (Journal of medicinal chemistry, 2009)

Columns and labels:
G9a [1] = target: T1, G9a (Homo sapiens, UniProt Q96KQ7); assay: DSF stabilization of G9a; assay type: binding; conditions: compared to 2a
T1 sequence (Q96KQ7 1-1210): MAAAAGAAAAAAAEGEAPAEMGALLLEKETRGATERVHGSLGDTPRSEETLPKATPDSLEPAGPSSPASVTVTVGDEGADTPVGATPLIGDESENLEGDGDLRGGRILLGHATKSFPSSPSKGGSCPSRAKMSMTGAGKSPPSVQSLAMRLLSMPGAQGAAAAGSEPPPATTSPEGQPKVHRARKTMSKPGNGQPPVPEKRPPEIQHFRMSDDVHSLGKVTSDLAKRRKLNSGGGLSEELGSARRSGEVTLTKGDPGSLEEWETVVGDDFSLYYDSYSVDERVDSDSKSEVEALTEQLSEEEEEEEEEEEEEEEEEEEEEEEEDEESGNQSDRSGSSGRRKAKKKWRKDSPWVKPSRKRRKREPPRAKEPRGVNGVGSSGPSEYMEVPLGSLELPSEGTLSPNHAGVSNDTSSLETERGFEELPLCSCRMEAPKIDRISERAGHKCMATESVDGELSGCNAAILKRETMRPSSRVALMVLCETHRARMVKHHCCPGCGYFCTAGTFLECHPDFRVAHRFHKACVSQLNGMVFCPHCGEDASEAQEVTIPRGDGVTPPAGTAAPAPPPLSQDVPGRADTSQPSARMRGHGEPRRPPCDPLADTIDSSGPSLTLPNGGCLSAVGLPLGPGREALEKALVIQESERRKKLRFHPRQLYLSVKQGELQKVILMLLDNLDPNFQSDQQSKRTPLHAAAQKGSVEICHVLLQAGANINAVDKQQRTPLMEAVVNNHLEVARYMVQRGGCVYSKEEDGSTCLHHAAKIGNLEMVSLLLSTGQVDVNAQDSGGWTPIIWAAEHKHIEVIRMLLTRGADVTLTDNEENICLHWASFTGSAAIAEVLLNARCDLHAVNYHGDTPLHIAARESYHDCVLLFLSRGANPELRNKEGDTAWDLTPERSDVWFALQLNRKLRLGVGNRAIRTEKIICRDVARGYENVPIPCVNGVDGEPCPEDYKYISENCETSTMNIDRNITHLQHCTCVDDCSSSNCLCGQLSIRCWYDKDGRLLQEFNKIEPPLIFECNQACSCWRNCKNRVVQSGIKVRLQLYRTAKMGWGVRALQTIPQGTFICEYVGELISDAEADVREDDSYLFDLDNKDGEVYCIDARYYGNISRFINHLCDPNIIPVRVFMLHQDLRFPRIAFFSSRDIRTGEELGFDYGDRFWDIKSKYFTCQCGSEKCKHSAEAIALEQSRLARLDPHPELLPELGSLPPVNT

G9a [2] = target: T1, G9a; assay: G9a FP assay; assay type: binding; conditions: compared to 2a

**Q.** How did the “Stabilization of G9a in DSF” value (G9a [1]) turn out when `COc1cc2c(NC3CCN(C)CC3)nc(N3CCCN(C)CC3)nc2cc1OCCCN(C)C` [Compound 8] was run?
**A.** stabilized G9a better compared to 2a

**Q.** And the “Displacement of fluorescein labeled 15-mer H3 peptide (1–15)” value (G9a [2])?
**A.** displaced fluorescein labeled 15-mer H3 peptide (1–15) better than 2a
